Laboratory results: patent US8207163B2, “Compositions, synthesis, and methods of using piperazine based antipsychotic agents” (Reviva Pharmaceuticals, Inc., priority 2008, dated 2012)
Structures can show the parent of a compound that is named as a salt.

Experiments:
[1] = biological target: T1, serotonin 5-HT1A receptor (human recombinant expressed in HEK-293 cells) (Homo sapiens, UniProt P08908); experiment: Serotonin, 5HT1A (human recombinant) radioligand binding assay, [3H]-8-OH-DPAT; conditions: human recombinant in HEK-293 cells; for IC50: six concentrations 0.5-1000 nM
T1 construct: expressed in transfected cells; host or cells: HEK-293 cells (from the result head)
T1 sequence (P08908 1-422): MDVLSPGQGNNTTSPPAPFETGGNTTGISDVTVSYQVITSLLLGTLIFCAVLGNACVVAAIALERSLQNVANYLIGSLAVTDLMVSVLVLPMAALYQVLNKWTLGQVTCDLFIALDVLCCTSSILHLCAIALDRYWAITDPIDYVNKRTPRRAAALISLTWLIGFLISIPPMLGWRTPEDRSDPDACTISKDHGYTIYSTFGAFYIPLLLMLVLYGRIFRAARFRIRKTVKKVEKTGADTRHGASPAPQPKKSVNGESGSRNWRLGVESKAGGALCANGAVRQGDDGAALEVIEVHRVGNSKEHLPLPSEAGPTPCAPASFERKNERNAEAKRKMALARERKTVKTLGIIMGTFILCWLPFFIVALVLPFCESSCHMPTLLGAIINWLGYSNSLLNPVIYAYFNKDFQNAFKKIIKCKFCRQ
Protocol: (§1) The reactions were carried out in 50 mM TRIS-Hal (pH 7.4) containing 10 mM MgSO4, 0.5 mM EDTA and 0.1% Ascorbic acid at room temperature for 1 hour. The reaction was terminated by rapid vacuum filtration onto glass fiber filters. Radioactivity trapped onto the filters was determined and compared to control values in order to ascertain any interactions of test compounds with the cloned serotonin—5HT1A binding site (Literature Reference: Hoyer, D. et al. Eur. Journal Pharmacol. 1985, 118, 13-23; Schoeffier, P. and Hoyer, D. Naunyn-Schmiedeberg's Arch. Pharmac. 1989, 340, 135-138) • Serotonin, 5HT2A (human) binding assay: • Materials and Methods: • Receptor Source: Human Cortex • Radioligand: [^3H]-Ketanserin (60-90 Ci/mmol) • Control Compound: Ketanserin • Incubation Conditions:
(§2) The radioligand binding assays for dopamine-D2S, serotonin-5HT1A and serotonin-5HT2A were carried out at six different concentrations and the test concentrations were 0.5 nM, 1 nM, 10 nm, 100 nM, 300 nM and 1000 nM.

[2] = biological target: T2, serotonin 5-HT2A receptor (Human Cortex) (Homo sapiens, UniProt P28223); experiment: Serotonin, 5HT2A (human) radioligand binding assay, [3H]-Ketanserin; conditions: for IC50: six concentrations 0.5-1000 nM
T2 construct: Receptor Source: Human Cortex; from tissue; host or cells: human cortex
Protocol: as §1
The reactions were carried out in 50 mM TRIS-Hal (pH 7.6) at room temperature for 90 minutes. The reaction was terminated by rapid vacuum filtration onto glass fiber filters. Radioactivity trapped onto the filters was determined and compared to control values in order to ascertain any interactions of test compounds with the serotonin—5HT2A binding site (Literature Reference: Leysen, J. E. et al. Mol. Pharmacol. 1982, 21, 301-314; Martin, G. R. and Humphrey, P. P. A. Neuropharmacol. 1994, 33(3/4), 261-273.)
as §2

[3] = biological target: T3, dopamine D2S receptor (human recombinant expressed in CHO cells) (Homo sapiens, UniProt P14416); experiment: Dopamine, D2S (human recombinant) radioligand binding assay, [3H]Spiperone; conditions: for IC50: six concentrations 0.5-1000 nM
T3 construct: expressed in transfected cells; host or cells: CHO cells
Protocol: The piperazine derivatives comprising Formulae (I)-(X) described in this invention were tested in the in vitro pharmacological assays to evaluate their activities for dopamine, D2S, serotonin, 5-HT1A and serotonin, 5-HT2A receptors. The in vitro assay protocols and literature references are described herein. • Dopamine, D2S (human recombinant) binding assay: • Materials and Methods: [table] The reactions were carried out in 50 mM TRIS-Hal (pH 7.4) containing 120 mM NaCl, 5 mM KCl, 5 mM MgCl2, 1 mM EDTA for 60 minutes at 25 C. The reaction was terminated by rapid vacuum filtration onto glass fiber filters. Radioactivity trapped onto the filters was determined and compared to control values in order to ascertain any interactions of test compounds with the cloned dopamine—D2 short binding site (Literature Reference: Jarvis, K. R. et al. Journal of Receptor Research 1993, 13(1-4), 573-590; Gundlach, A. L. et al. Life Sciences 1984, 35, 1981-1988.) • Serotonin, 5HT1A (human recombinant) binding assay: • Materials and Methods: The radioligand binding assays for dopamine-D2S, serotonin-5HT1A and serotonin-5HT2A were carried out at six different concentrations and the test concentrations were 0.5 nM, 1 nM, 10 nm, 100 nM, 300 nM and 1000 nM.

T3 sequence (P14416 1-414 isoform P14416-2): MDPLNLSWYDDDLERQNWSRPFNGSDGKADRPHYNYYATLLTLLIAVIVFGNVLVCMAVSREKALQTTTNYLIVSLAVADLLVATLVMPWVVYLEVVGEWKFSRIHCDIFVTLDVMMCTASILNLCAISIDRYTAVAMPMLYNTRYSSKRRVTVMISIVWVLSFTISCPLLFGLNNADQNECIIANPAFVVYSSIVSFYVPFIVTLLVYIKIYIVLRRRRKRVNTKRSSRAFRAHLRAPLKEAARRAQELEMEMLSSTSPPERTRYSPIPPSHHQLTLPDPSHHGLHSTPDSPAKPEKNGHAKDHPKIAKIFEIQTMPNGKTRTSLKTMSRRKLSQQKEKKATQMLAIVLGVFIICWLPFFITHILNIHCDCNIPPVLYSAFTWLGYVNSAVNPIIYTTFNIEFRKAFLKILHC
T2 sequence (P28223 whole entry): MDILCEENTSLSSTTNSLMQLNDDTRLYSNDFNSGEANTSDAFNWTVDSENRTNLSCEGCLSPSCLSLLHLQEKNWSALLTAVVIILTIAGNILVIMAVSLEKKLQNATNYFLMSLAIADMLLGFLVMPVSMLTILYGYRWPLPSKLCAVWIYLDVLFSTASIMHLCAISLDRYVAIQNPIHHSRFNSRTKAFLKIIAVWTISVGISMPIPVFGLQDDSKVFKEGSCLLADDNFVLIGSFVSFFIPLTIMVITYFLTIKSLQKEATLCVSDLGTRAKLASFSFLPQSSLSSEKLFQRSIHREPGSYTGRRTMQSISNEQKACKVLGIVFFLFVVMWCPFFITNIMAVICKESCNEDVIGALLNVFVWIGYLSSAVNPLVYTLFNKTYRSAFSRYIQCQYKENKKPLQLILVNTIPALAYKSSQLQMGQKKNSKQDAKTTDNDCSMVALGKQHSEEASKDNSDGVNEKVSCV

Row | SMILES | Ki [1] [µM] | IC50 [1] [µM] | Ki [2] [µM] | IC50 [2] [µM] | Ki [3] [µM] | IC50 [3] [µM]
1 | CCOC(=O)CN1C(=O)COc2ccc(OCCCCN3CCN(c4cccc(Cl)c4Cl)CC3)cc21 [Compound 28c, Ethyl 2-(6-(4-(4-(2,3-dichlorophenyl)piperazin-1-yl)butoxy)-3-oxo-2H-benzo[b][1,4]oxazin-4(3H)-yl)acetate hydrochloride] | 0.00296 | 0.00445 | 0.106 | 0.237 | 0.0155 | 0.0494
2 | CCOC(=O)C(C)(C)Oc1ccccc1N1CCN(CCCCOc2ccc3c(c2)NC(=O)CO3)CC1 [Compound 18c, Ethyl 2-methyl-2-(2-(4-(4-(3-oxo-3,4-dihydro-2H-benzo[b][1,4]oxazin-6-yloxy)butyl)piperazin-1-yl)phenoxy)propanoate hydrochloride] | 0.00267 | 0.00441 | 0.185 | 0.376 | 0.00209 | 0.00593
3 | O=C(CCCN1CCN(c2cccc(Cl)c2Cl)CC1)Nc1ccc2c(c1)NC(=O)CO2 [Compound 5b, 4-(4-(2,3-Dichlorophenyl)piperazin-1-yl)-N-(3-oxo-3,4-dihydro-2H-benzo[b][1,4]oxazin-6-yl)butanamide hydrochloride] | 0.0114 | 0.0185 | 0.0574 | 0.11 | 0.00289 | 0.00789
4 | CCOC(=O)C(C)(C)CCOc1ccccc1N1CCN(CCCCOc2ccc3c(c2)NC(=O)CO3)CC1 [Compound 18b, Ethyl 2,2-dimethyl-4-(2-(4-(4-(3-oxo-3,4-dihydro-2H-benzo[b][1,4]oxazin-6-yloxy)butyl)piperazin-1-yl)phenoxy)butanoate hydrochloride] | 0.0033 | 0.00544 | 0.34 | 0.622 | 0.0502 | 0.147
5 | CCOC(=O)CCCOc1ccccc1N1CCN(CCCCOc2ccc3c(c2)NC(=O)CO3)CC1 [Compound 18a, Ethyl 4-(2-(4-(4-(3-oxo-3,4-dihydro-2H-benzo[b][1,4]oxazin-6-yloxy)butyl)piperazin-1-yl)phenoxy)butanoate hydrochloride] | 0.0102 | 0.0167 | 0.282 | 0.572 | 0.00677 | 0.0192
